Source: the supplement of paper PMC10307832

Tests used:
Assay in all cases: relative viability (nuclei count vs DMSO), 5 days (fraction); higher = more cells survive
[1] = compound: CN1C=C(C2=CC=CC=C21)/C=C\3/C4=C(C=CC=N4)NC3=O + Nc1ncn([C@H]2C[C@H](O)[C@@H](CO)O2)c(=O)n1 [Decitabine] (partner 2 µM)
In short: (§1)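 Nuclei were stained with Hoechst during a one-step fixation (final 0.05% Triton X-100, 1% formaldehyde, 1 ug/ml Hoechst) carried out 5 days after dosing, then counted on 4× images. The cells, lung cancer lines in 1536-well plates, had been dosed by pin tool the day after seeding with one drug alone or a fixed anchor-drug dose plus five library-drug doses (not always all listed) in √10 steps. Relative viability is the nuclei count in treated wells divided by that in vehicle wells, and each value is the median of duplicate plates.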

[2] = compound: CC(=O)Nc1cccc(-n2c(=O)n(C3CC3)c(=O)c3c(Nc4ccc(I)cc4F)n(C)c(=O)c(C)c32)c1 [Trametinib] + CCNC(=O)c1noc(-c2cc(C(C)C)c(O)cc2O)c1-c1ccc(CN2CCOCC2)cc1 [Luminespib] (partner 0.01 µM)
In short: as §1

[3] = compound: CN1C=C(C2=CC=CC=C21)/C=C\3/C4=C(C=CC=N4)NC3=O + C[C@]1(O)C[C@@H](c2nc(-c3ccc4ccc(-c5ccccc5)nc4c3)c3c(N)nccn32)C1 [Linsitinib] (partner 1 µM)
In short: as §1

[4] = compound: CC(=O)Nc1cccc(-n2c(=O)n(C3CC3)c(=O)c3c(Nc4ccc(I)cc4F)n(C)c(=O)c(C)c32)c1 [Trametinib] + COc1cccc2cc(-c3nc([C@H]4CC[C@H](C(=O)O)CC4)n4ncnc(N)c34)[nH]c12 [OSI-027] (partner 0.5 µM)
In short: as §1

| Cell Line | relative viability ([1]; first compound 0.02 µM) | relative viability ([1]; first compound 0.06325 µM) | relative viability ([1]; first compound 0.2 µM) | relative viability ([1]; first compound 0.6325 µM) | relative viability ([1]; first compound 2 µM) | relative viability ([2]; first compound 0.0025 µM) | relative viability ([2]; first compound 0.007906 µM) | relative viability ([2]; first compound 0.025 µM) | relative viability ([2]; first compound 0.07906 µM) | relative viability ([2]; first compound 0.25 µM) | relative viability ([3]; first compound 0.02 µM) | relative viability ([3]; first compound 0.06325 µM) | relative viability ([3]; first compound 0.2 µM) | relative viability ([3]; first compound 0.6325 µM) | relative viability ([3]; first compound 2 µM) | relative viability ([4]; first compound 0.0025 µM) | relative viability ([4]; first compound 0.007906 µM) | relative viability ([4]; first compound 0.025 µM) | relative viability ([4]; first compound 0.07906 µM) | relative viability ([4]; first compound 0.25 µM) |
| --- | --- | --- | --- | --- | --- | --- | --- | --- | --- | --- | --- | --- | --- | --- | --- | --- | --- | --- | --- | --- |
| NCI-H647 | 0.391 | 0.314 | 0.384 | 0.327 | 0.349 | 0.183 | 0.12 | 0.324 | 0.209 | 0.102 | 0.933 | 0.922 | 0.896 | 1.2 | 1.1 | 0.674 | 0.696 | 0.533 | 0.368 | 0.175 |
| PC-14 | 0.218 | 0.209 | 0.178 | 0.23 | 0.226 | 0.125 | 0.147 | 0.127 | 0.152 | 0.147 | 0.95 | 0.933 | 0.988 | 0.929 | 0.96 | 0.843 | 0.72 | 0.427 | 0.411 | 0.155 |
| NCI-H1666 | 0.7 | 0.701 | 0.591 | 0.764 | 0.658 | 0.95 | 0.912 | 0.717 | 0.72 | 0.573 | 0.85 | 0.712 | 0.79 | 0.748 | 0.665 | 0.765 | 0.811 | 0.632 | 0.675 | 0.552 |
| COR-L 105 | 0.633 | 0.745 | 0.63 | 0.68 | 0.64 | 0.685 | 0.587 | 0.415 | 0.271 | 0.344 | 0.969 | 0.948 | 0.9 | 0.809 | 0.916 | 0.583 | 0.477 | 0.309 | 0.333 | 0.295 |
| LU99A | 0.855 | 0.877 | 0.902 | 0.848 | 0.842 | 0.297 | 0.241 | 0.187 | 0.189 | 0.151 | 0.534 | 0.506 | 0.509 | 0.485 | 0.617 | 0.301 | 0.294 | 0.287 | 0.326 | 0.297 |
| NCI-H596 | 1.03 | 1.06 | 0.958 | 1.88 | 1.81 | 0.901 | 0.775 | 0.65 | 0.727 | 0.523 | 0.976 | 1.08 | 0.934 | 0.935 | 1.05 | 0.531 | 0.62 | 0.407 | 0.487 | 0.249 |
| 201T | 0.857 | 0.891 | 0.859 | 0.885 | 0.917 | 1.08 | 0.866 | 0.856 | 0.852 | 0.8 | 0.993 | 1.05 | 0.967 | 1.09 | 0.786 | 0.707 | 0.642 | 0.633 | 0.443 | 0.505 |
| HCC-15 | 0.562 | 0.566 | 0.656 | 0.579 | 0.814 | 0.313 | 0.186 | 0.157 | 0.165 | 0.192 | 0.907 | 0.841 | 0.933 | 0.853 | 0.976 | 0.436 | 0.338 | 0.201 | 0.161 | 0.167 |
